Experiment [1] relates to acute paw inflammation caused by intraplantar injection of λ-carrageenan. Nature of the experiment: Carrageenan model for pain (Example 8). In kind it is in vivo. The conditions noted are these: rat, 30 and 100 mg/kg SC, 4 h post-carrageenan. The procedure: Acute inflammatory hyperalgesia is induced in rats by unilateral injection of 150 μl of a 3% solution of λ-carrageenan into the plantar surface of the left hind paw 3-5 hours prior to testing. Thermal hyperalgesia, mechanical allodynia, mechanical hyperalgesia, weight bearing asymmetry and paw inflammation were determined. Rats are pretreated with test compounds either administered intravenously (IV), by subcutaneous injection (SC) or by oral gavage (PO).
Thermal nociceptive thresholds are determined according to the method described elsewhere (Hargreaves et al., 1988). Briefly, through the glass surface, a radiant heat source (8V, 50 W projector bulb) is focused onto the plantar surface of the hind paw. The rat's paw-withdrawal latency to this stimulus is recorded to the nearest 0.1 s. Each latency score is an average of three trials, which are separated by at least 5 min. In all rats, both the injured and uninjured hind paws are similarly tested, allowing direct comparisons between inflamed and non-inflamed paws. […]
Mechanical hyperalgesia is determined by measuring the difference of withdrawal thresholds in response to increasing pressure in the inflamed vs contralateral paw using the Randall-Sellito Paw pressure meter (IITC Life Science) (Randall L O and Sellito J J., 1957). Briefly, rats are held in a contention jacket suspended by a stand and allowed to acclimate for 10 min. Then the tips of the paw pressure applicator are positioned close to the middle of the plantar and the dorsal area of the paw, avoiding the saphenous nerve innervations and an increasing pressure is applied until the rat removes it. Measures are performed in triplicate for each paw by alternating each paw with an interval of at least 1 min to avoid sensitization. […]
Carrageenan induced paw oedema is measured with a plethysmometer (IITC Life Science). Briefly, a mark is made on the ankles of the rat and the ipsi and contralateral paw are submerged 3 times into water up to the mark in order to determine the paw volume by calculation of water displacement.

For experiment [2], the target named is T1, recombinant homomeric hASIC1a channels (Homo sapiens, UniProt P78348).
T1 construct: expressed in transfected cells; host or cells: Xenopus laevis oocytes (nuclear microinjection of expression vector such as pcDNA3)
T1 sequence (P78348 1-528): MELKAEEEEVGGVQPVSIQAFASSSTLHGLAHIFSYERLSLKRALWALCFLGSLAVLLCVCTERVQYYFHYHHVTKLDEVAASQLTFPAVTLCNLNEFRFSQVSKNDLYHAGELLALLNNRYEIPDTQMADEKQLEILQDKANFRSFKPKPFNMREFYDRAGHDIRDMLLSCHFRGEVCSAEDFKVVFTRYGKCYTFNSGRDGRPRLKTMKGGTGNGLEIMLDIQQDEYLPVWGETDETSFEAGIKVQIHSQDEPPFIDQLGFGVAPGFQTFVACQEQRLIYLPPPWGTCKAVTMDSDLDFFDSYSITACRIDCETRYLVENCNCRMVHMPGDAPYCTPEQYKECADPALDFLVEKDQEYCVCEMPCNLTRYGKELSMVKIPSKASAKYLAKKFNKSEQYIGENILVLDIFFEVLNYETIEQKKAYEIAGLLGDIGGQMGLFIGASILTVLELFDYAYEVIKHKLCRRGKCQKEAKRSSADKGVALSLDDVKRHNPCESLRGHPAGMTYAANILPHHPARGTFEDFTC
Nature of the experiment: Two-electrode voltage clamp in Xenopus laevis oocytes expressing gated ion channels (Example 4). In kind it is cell-based.

Results on two molecules are retold here after patent US20090023773A1, “COMPOSITIONS AND METHODS FOR MODULATING GATED ION CHANNELS” (PainCeptor Pharma Corporation, priority 2007, published 2009).

Structures are written as SMILES.

Turning to `Cc1ccc(-c2nc(Nc3ccc(C(=O)O)cc3)c3cc(Cl)ccc3n2)cc1` [Compound 124], in experiment [1] (30 min prior to carrageenan), the mechanical hyperalgesia result is listed as “dose-dependently reversed”, the “size of the inflammation” value is given as “reduced” and the thermal hyperalgesia entry was “dose-dependently reversed”.
As to `Cc1cc(OC2CCN(Cc3ccccc3)CC2)c2cc(O)ccc2n1` [Compound 13, 4-(1-benzylpiperidin-4-yloxy)-2-methylquinolin-6-ol], the IC50 in experiment [2] (Table 1, generated using oocytes as in Example 4) fell in the range of 0.1 to 10 µM. For the same molecule, the “reduction in the current evoked by a mild pH stimulation” value in experiment [2] (acid-induced inward currents in oocytes injected with hASIC1a cDNA, FIGS. 2A-2C) is given as “clear dose-dependent reduction”. Also, in experiment [1] (1 min prior to carrageenan), the mechanical hyperalgesia result is “dose-dependently reversed”, the “size of the inflammation” value is “reduced” and the thermal hyperalgesia result was “dose-dependently reversed”.
